Assay results reported in patent US20090275474A1, “PESTICIDAL APPLICATIONS OF DIMETHYL CYANAMIDE” (Metbro Distributing L.P., priority 2008, published 2009).
Entries after “also recorded” stand apart in the source; their conditions may differ.

Legend:
Assay type in all cases: in vivo
[1] = tested on: dorylaimida (predatory, not plant parasitic nematodes); assay: Example 2 pot test, soil populations of dorylaimida; conditions: soil drench 20-150 mgs. A.I./kg soil
Experimental: (§1) Dimethyl cyanamide and diisopropyl cyanamide (both obtained from Aldrich) were delivered in aqueous preparations (1.25% active ingredient) (A.I.) prepared immediately before use by diluting in demineralized water while stirring with a magnetic stirrer. […] Each compound was delivered at rates of 0, 20, 40, 60, 80, 100, and 150 mgs. A.I./kg soil—equivalent to […].
(§2) Each treatment was delivered by drenching in 100 mL aqueous volume onto the soil surface in pots (10-cm diam.; PVC) containing 1 kg soil. The soil (silt loam; pH 6.2; cec<10 meq/100 gm soil; org. matter<1.0%) was from a cotton field severely infested with the reniform nematode [Rotylenchulus reniformis]. Immediately after treatment the pots were covered by a thick (1.5 mil) clear low density polyethylene bag held tight against the outer wall of the pot by a rubber band. Eleven days after application the bags were removed and soil samples were taken from every pot (experimental unit) for nematological analysis (salad bowl incubation technique). […] Final root and soil nematode populations were determined and plant growth parameters (number and height of plants, weights of shoots and roots, root condition indices) were recorded. […]

[2] = tested on: beneficial microbivorous nematodes; assay: Example 2 pot test, microbivorous nematodes in soil; conditions: soil drench 20-150 mgs. A.I./kg soil
Experimental: as §1, §2

[3] = tested on: beneficial microbivorous nematodes; assay: Example 1 pot test, microbivorous nematodes in soil; conditions: soil drench 25-200 mg A.I./kg soil
Experimental: (§3) Hydrogen cyanamide (Dormex® formulation, Dormex Corp.) and dimethyl cyanamide (Aldrich) were delivered in aqueous preparations (1.25% active ingredient) (A.I.) prepared immediately before use by diluting in demineralized water while stirring with a magnetic stirrer. Each compound was delivered at rates of 0, 25, 50, 75, 100, 150, and 200 mg A.I./kg soil—equivalent to 0, 50, 100, 150, 200, 300, and 400 lbs A.I./acre.
as §2, with “drenching the compound” for “drenching”, “nematode (Rotylenchulus reniformis).” for “nematode [Rotylenchulus reniformis].”, “covered with” for “covered by”, “(number &” for “(number and”

[4] = tested on: Yellow nutsedge [Cyperus esculentus], crabgrass [Digitaria sanguinalis], sicklepod [Senna obtusifolia], morningglory [Ipomoea spp], and other annual weeds; assay: Example 4 herbicidal pot test, dimethyl cyanamide alone and in combination with EPTC, weed counts
Experimental: Dimethyl cyanamide was delivered in a 5% aqueous solution. The herbicide EPTC [ethyl n-propyl thiocarbamate] was delivered in an aqueous emulsion containing 0.1192% A.I. Both formulations were prepared immediately before use by diluting or mixing [a concentrated formulation?] in demineralized water while stirring with a magnetic stirrer. The dimethyl cyanamide was obtained from Aldrich. The EPTC used was a commercial formulation [Eptam® herbicide, Gowan].
Dimethyl cyanamide was applied at rates of 0, 50, 100, 200, 300, and 400 mg A.I./kg soil—equivalent to 0, 100, 200, 400, 600, and 800 lbs A.I./acre, respectively. EPTC was delivered at 0 and 3.576 mg/kg soil, equivalent to 0 and approximately 7 lbs. A.I./acre. All possible combinations of the two compounds at their corresponding rates were included in the experiment.
Each treatment was delivered by drenching in 100 mL aqueous volume onto the soil surface in pots [10-cm diam.; PVC] containing 1 kg soil. The soil was from a cotton field [silt loam; ph 6.2; cec<10 meq/100 gm soil; org. matter<1.0%1. Immediately after treatment the pots were covered by a thick [1.5 mil] clear low density polyethylene bag held tight against the outer wall of the pot by a rubber band. Six days after application the bags were removed. Weed counts were taken from each pot [experimental unit] at 6, 12, 17, 47, and 62 days after application of the treatments. […]

[5] = tested on: Yellow nutsedge [Cyperus esculentus], crabgrass [Digitaria sanguinalis], sicklepod [Senna obtusifolia], morningglory [Ipomoea spp.], and other annual weeds; assay: Example 3 herbicidal pot test, soil drench, weed counts; conditions: for herbicidal activity against all weed species tested: soil drench 100-800 mgs. A.I./kg soil, weed counts 11, 19, 26 and 32 days after application, FIGS. 11-12
Experimental: Hydrogen cyanamide and dimethyl cyanamide were delivered in aqueous 5% solutions prepared immediately before use by diluting in demineralized water while stirring with a magnetic stirrer. Both chemicals were obtained from Aldrich. Each compound was delivered at rates of 0, 100, 200, 300, 400, 600, and 800 mgs. A.I./kg soil—equivalent to 0, 200, 400, 600, 800, 1200, and 1600 lbs A.I./acre.
Each treatment was delivered by drenching in 100 mL aqueous volume onto the soil surface in pots [10-cm diam.; PVC] containing 1 kg soil. The soil was from a cotton field [silt loam; ph 6.2; cec<10 meq/100 gm soil; org. matter<1.0%]. Immediately after treatment the pots were covered by a thick [1.5 mil] clear low density polyethylene bag held tight against the outer wall of the pot by a rubber band. Eleven days after application the bags were removed. Weed counts were taken from each pot [experimental unit] at 11, 19, 26 and 32 days after application of the treatments.
Major pests: Yellow nutsedge [Cyperus esculentus], crabgrass [Digitaria sanguinalis], sicklepod [Senna obtusifolia], morningglory [Ipomoea spp.], and other annual weeds.
Experimental design: Randomized complete block with seven replications/treatments.
(§4) Statistical analyses: ANOVA and Fischer's least significant difference [FLSD] at p 0.05. Regression analyses.

[6] = tested on: reniform nematode (Rotylenchulus reniformis); assay: Example 1 pot test, soil drench, reniform nematode in soil and soybean roots; conditions: for nematicidal activity against the reniform nematode in soil and soybean roots: soil drench 25-200 mg A.I./kg soil, soil sampled 11 days after application and after eight weeks of soybean growth, FIGS. 1-6
Experimental: as §3
Each treatment was delivered by drenching the compound in 100 mL aqueous volume onto the soil surface in pots (10-cm diam.; PVC) containing 1 kg soil. The soil (silt loam; pH 6.2; cec<10 meq/100 gm soil; org. matter<1.0%) was from a cotton field severely infested with the reniform nematode (Rotylenchulus reniformis). Immediately after treatment the pots were covered with a thick (1.5 mil) clear low density polyethylene bag held tight against the outer wall of the pot by a rubber band. Eleven days after application the bags were removed and soil samples were taken from every pot (experimental unit) for nematological analysis (salad bowl incubation technique). Each pot was then planted with five seeds of nematode-susceptible “Hutcheson” soybean (glycine max) and the resulting plants were grown for eight weeks, at which time the plants were removed and soil samples were taken from each pot. Final root and soil nematode populations were determined and plant growth parameters (number & height of plants, weights of shoots and roots, root condition indices) were recorded.
Major pests: The reniform nematode [Rotylenchulus reniformis].
(§5) Experimental design: Randomized complete block with seven replications/treatment.
as §4

[7] = tested on: reniform nematode [Rotylenchulus reniformis]; assay: Example 2 pot test, soil drench, reniform nematode in soil; conditions: soil drench 20-150 mgs. A.I./kg soil; FIGS. 7-10
Experimental: as §1, §2

[8] = tested on: "Rowden" cotton (Gossipyum hirsutum); assay: Example 2 pot test, growth and root health of cotton plants in nematode-infested soil
Experimental: as §1
Each treatment was delivered by drenching in 100 mL aqueous volume onto the soil surface in pots (10-cm diam.; PVC) containing 1 kg soil. The soil (silt loam; pH 6.2; cec<10 meq/100 gm soil; org. matter<1.0%) was from a cotton field severely infested with the reniform nematode [Rotylenchulus reniformis]. Immediately after treatment the pots were covered by a thick (1.5 mil) clear low density polyethylene bag held tight against the outer wall of the pot by a rubber band. Eleven days after application the bags were removed and soil samples were taken from every pot (experimental unit) for nematological analysis (salad bowl incubation technique). Each pot was then planted with five seeds of nematode-susceptible “Rowden” cotton (Gossipyum hirsutum) and the resulting plants were grown for eight weeks, at which time the plants were removed and soil samples were taken from each pot. Final root and soil nematode populations were determined and plant growth parameters (number and height of plants, weights of shoots and roots, root condition indices) were recorded.
as §5
Statistical analyses: ANOVA and Fischer's least significant difference [FLSD] at p
0.05. Regression analyses.

[9] = tested on: "Hutcheson" soybean (glycine max); assay: Example 1 pot test, growth of soybean plants in nematode-infested soil; conditions: after eight weeks of growth
Experimental: as §3
as §2, with “drenching the compound” for “drenching”, “nematode (Rotylenchulus reniformis).” for “nematode [Rotylenchulus reniformis].”, “covered with” for “covered by”, “(number &” for “(number and”

[10] = tested on: dorylaimida (predatory, not plant parasitic nematodes); assay: Example 1 pot test, soil populations of dorylaimida; conditions: soil drench 25-200 mg A.I./kg soil
Experimental: as §3
as §2, with “drenching the compound” for “drenching”, “nematode (Rotylenchulus reniformis).” for “nematode [Rotylenchulus reniformis].”, “covered with” for “covered by”, “(number &” for “(number and”

Structure (SMILES)	soil populations of dorylaimida [1]	soil populations of beneficial microbivorous nematodes [2]	effect on beneficial microbivorous nematodes [3]	herbicidal activity of dimethyl cyanamide during the initial counts in the presence of EPTC [4]	herbicidal activity compared with hydrogen cyanamide ([5]; dose-response expressed in terms of mg of CN added to the soil, one exception (sicklepod))	herbicidal activity against all weed species tested [5]	effectiveness as a nematicide relative to hydrogen cyanamide ([6]; considered in terms of the rates of cyanamide anion applied)	overall results on delivery at the same rate (kg/ha) as hydrogen cyanamide ([6]; same weight rate, hydrogen cyanamide contains approximately 1.66 times as much cyanamide (NCN group))	nematicidal activity against the reniform nematode in soil and soybean roots [6]	nematicidal activity against the reniform nematode in soil [7]	root health as indicated by root appearance indices ([8]; dimethyl cyanamide: two highest rates, diisopropyl cyanamide: any rate)	number of cotton plants/pot, dimethyl cyanamide vs diisopropyl cyanamide ([8]; in vivo)	cotton plant heights and shoot and root weights ([8]; two highest rates, after eight weeks)	soybean plant height and weights of shoots and roots, compared with pots treated with hydrogen cyanamide [9]	soil populations of dorylaimida [10]	root populations of the reniform nematode, compared between the two compounds ([6]; soybean roots after eight weeks, hydrogen cyanamide vs dimethyl cyanamide)
CC(C)N(C#N)C(C)C [diisopropyl cyanamide, reference compound]	either reduced or not affected	either reduced or not affected														
CN(C)C#N [dimethyl cyanamide, Dimethyl cyanamide]	either reduced or not affected	either reduced or not affected	not significantly affected	almost “masked” by that of EPTC	superior to hydrogen cyanamide as a herbicide	herbicidal against all weed species tested; also recorded: considerable herbicidal activity equivalent to or better than that shown by hydrogen cyanamide	more effective as a nematicide than hydrogen cyanamide	very similar results overall	nematicidal, resulting in suppression or elimination of the reniform nematode in soil and soybean roots; also recorded: powerful nematicide	nematicidal, resulting in suppression or elimination of the reniform nematode in soil; also recorded: powerful nematicide	markedly improved	higher	concomitant increase	taller and with heavier shoots and roots	similarly reduced	
N#CN [hydrogen cyanamide, Hydrogen cyanamide, reference compound]			not significantly affected			herbicidal against all weed species tested			nematicidal, resulting in suppression or elimination of the reniform nematode in soil and soybean roots						similarly reduced	lower
